Assay: Strength and degradation profile of tigecycline 20 mg/mL bulk solutions by reversed phase HPLC (effect of temperature, time, pH, dissolved oxygen; Runs A to O)
Type: physicochemical
Details: 2° C.
Protocol: The contents of the sample vials are dissolved in diluent. The sample solution is diluted, if necessary, and chromatographed on a reversed phase column using gradient elution. Impurities are determined by comparing the impurity peak areas in the sample preparation chromatogram to the average area of tigecycline peaks in the standard preparation chromatograms obtained concomitantly.
Chromatographic Column—Length about 15 cm, inside diameter about 4.6 mm, packed with Inertsil ODS2, 5 μm size particles or equivalent.
Detector—Ultraviolet spectrophotometric detector capable of operating at 248 nm with a sensitivity of about 0.5 absorbance units full scale.
The results of additional studies to investigate the effect of processing parameters such as temperature, time, and dissolved oxygen content on the purity profile of tigecycline solutions using the following materials, methods and procedures are presented in Tables A to O.
The experiments were run in plastic glove bags under normal laboratory light conditions. Plastic glove boxes will be used to control the headspace of the beakers. The batch size was 200 mL. • 1. Prepare the glove bag with a mixture of nitrogen and air to achieve an oxygen level in the solution as per the design. • 2. Place the jacketed beaker on the magnetic stirrer. Connect it to the cooler. Set the cooler to the desired set point. • 3. Add 200 mL of SWFI in to the beaker. Allow equilibrating. Measure the temperature and oxygen content. When it reaches the desired condition, add accurately weighed API and mix until dissolved. If necessary use spatula to aid dissolution. For pH adjustments, use 4 mL of either 0.1N NaOH or 0.1N HCl and 196 mL of WFI for manufacture. • 4. After complete dissolution, Transfer about 5.5 mL of Solution in vials and stopper them. These vials will be stoppered at the appropriate headspace conditions. Place the vials in appropriate temperature conditions. • 5. Sample the vials at 1, 4, 8, 10, 12 and 24 hours. Send the samples for analysis. Freeze the 10, 12 and 24 samples at −20° C. for analysis the following day. • 6. Measure pH and record color of the solution at each time point. Results
The 1-hour samples were taken directly from the beakers. Samples for later time points were collected in stoppered vials processed in the atmosphere of the bag in order to simulate the headspace conditions then placed in water baths or refrigerator to maintain there respective temperature conditions. This was done to maintain safety in the lab. Disposable plastic glove bags require constant flow of a mixture of nitrogen and air to maintain headspace oxygen level that will result in the desired dissolved oxygen (DO) content in the sample. The pH of samples was measured at each sample points.
Strength and degradation profile was analyzed by HPLC as described above. […] Degradation was slightly higher at higher temperature condition.

[1] = Run #K, 20 mg/mL, pH 8.2, Oxygen 0.1 mg/L, hours 1,4,8,10,12,24 at r6-r11, after 24 hours
[2] = Run #L, pH 7.7, Oxygen = 0.1 mg/L, 1 Hrs
[3] = Run #L, pH 7.7, Oxygen = 0.1 mg/L, 4 Hrs
[4] = Run #L, pH 7.7, Oxygen = 0.1 mg/L, 8 Hrs
[5] = Run #L, pH 7.7, Oxygen = 0.1 mg/L, 10 Hrs
[6] = Run #L, pH 7.7, Oxygen = 0.1 mg/L, 12 Hrs

SMILES: CN(C)c1cc(NC(=O)CNC(C)(C)C)c(O)c2c1C[C@H]1C[C@H]3[C@H](N(C)C)C(O)=C(C(N)=O)C(=O)[C@@]3(O)C(O)=C1C2=O [Tigecycline]
- RRT 0.74 Epimer [1]: 0.17%
- RRT 1.45 [1]: 0.08%
- RRT 1.64 Mino [1]: 0.14%
- RRT 1.85 MW = 597 [1]: 0.08%
- Strength [1]: 19.067 mg/mL
- Total [1]: 0.55%
- RRT 0.12 MW = 633 [2]: BRL (BRL means below reporting limit (meaning less than 0.05% of tigecycline peak))
- RRT 0.23 MW = 572 [2]: BRL (BRL means below reporting limit (meaning less than 0.05% of tigecycline peak))
- RRT 0.50 MW = 601 [2]: BRL (BRL means below reporting limit (meaning less than 0.05% of tigecycline peak))
- RRT 0.55 MW = 583 [2]: BRL (BRL means below reporting limit (meaning less than 0.05% of tigecycline peak))
- RRT 0.58 [2]: 0.08%
- RRT 0.64 9-Amino [2]: BRL (BRL means below reporting limit (meaning less than 0.05% of tigecycline peak))
- RRT 0.74 Epimer [2]: 0.17%
- RRT 0.76 [2]: BRL (BRL means below reporting limit (meaning less than 0.05% of tigecycline peak))
- RRT 0.78 MW = 557 [2]: BRL (BRL means below reporting limit (meaning less than 0.05% of tigecycline peak))
- RRT 1.12 [2]: BRL (BRL means below reporting limit (meaning less than 0.05% of tigecycline peak))
- RRT 1.45 [2]: 0.08%
- RRT 1.58 [2]: BRL (BRL means below reporting limit (meaning less than 0.05% of tigecycline peak))
- RRT 1.64 Mino [2]: 0.14%
- RRT 1.67 MW = 556 [2]: BRL (BRL means below reporting limit (meaning less than 0.05% of tigecycline peak))
- RRT 1.85 MW = 597 [2]: 0.07%
- Strength [2]: 19.23 mg/mL
- Total [2]: 0.53%
- RRT 0.12 MW = 633 [3]: BRL (BRL means below reporting limit (meaning less than 0.05% of tigecycline peak))
- RRT 0.23 MW = 572 [3]: BRL (BRL means below reporting limit (meaning less than 0.05% of tigecycline peak))
- RRT 0.50 MW = 601 [3]: BRL (BRL means below reporting limit (meaning less than 0.05% of tigecycline peak))
- RRT 0.55 MW = 583 [3]: BRL (BRL means below reporting limit (meaning less than 0.05% of tigecycline peak))
- RRT 0.58 [3]: 0.08%
- RRT 0.64 9-Amino [3]: BRL (BRL means below reporting limit (meaning less than 0.05% of tigecycline peak))
- RRT 0.74 Epimer [3]: 0.17%
- RRT 0.76 [3]: BRL (BRL means below reporting limit (meaning less than 0.05% of tigecycline peak))
- RRT 0.78 MW = 557 [3]: BRL (BRL means below reporting limit (meaning less than 0.05% of tigecycline peak))
- RRT 1.12 [3]: BRL (BRL means below reporting limit (meaning less than 0.05% of tigecycline peak))
- RRT 1.45 [3]: 0.07%
- RRT 1.58 [3]: BRL (BRL means below reporting limit (meaning less than 0.05% of tigecycline peak))
- RRT 1.64 Mino [3]: 0.15%
- RRT 1.67 MW = 556 [3]: BRL (BRL means below reporting limit (meaning less than 0.05% of tigecycline peak))
- RRT 1.85 MW = 597 [3]: 0.08%
- Strength [3]: 19.053 mg/mL
- Total [3]: 0.54%
- RRT 0.12 MW = 633 [4]: BRL (BRL means below reporting limit (meaning less than 0.05% of tigecycline peak))
- RRT 0.23 MW = 572 [4]: BRL (BRL means below reporting limit (meaning less than 0.05% of tigecycline peak))
- RRT 0.50 MW = 601 [4]: BRL (BRL means below reporting limit (meaning less than 0.05% of tigecycline peak))
- RRT 0.55 MW = 583 [4]: BRL (BRL means below reporting limit (meaning less than 0.05% of tigecycline peak))
- RRT 0.58 [4]: 0.08%
- RRT 0.64 9-Amino [4]: BRL (BRL means below reporting limit (meaning less than 0.05% of tigecycline peak))
- RRT 0.74 Epimer [4]: 0.17%
- RRT 0.76 [4]: 0.05%
- RRT 0.78 MW = 557 [4]: BRL (BRL means below reporting limit (meaning less than 0.05% of tigecycline peak))
- RRT 1.12 [4]: BRL (BRL means below reporting limit (meaning less than 0.05% of tigecycline peak))
- RRT 1.45 [4]: 0.08%
- RRT 1.58 [4]: BRL (BRL means below reporting limit (meaning less than 0.05% of tigecycline peak))
- RRT 1.64 Mino [4]: 0.13%
- RRT 1.67 MW = 556 [4]: BRL (BRL means below reporting limit (meaning less than 0.05% of tigecycline peak))
- RRT 1.85 MW = 597 [4]: 0.08%
- Strength [4]: 18.988 mg/mL
- Total [4]: 0.60%
- RRT 0.12 MW = 633 [5]: BRL (BRL means below reporting limit (meaning less than 0.05% of tigecycline peak))
- RRT 0.23 MW = 572 [5]: BRL (BRL means below reporting limit (meaning less than 0.05% of tigecycline peak))
- RRT 0.50 MW = 601 [5]: BRL (BRL means below reporting limit (meaning less than 0.05% of tigecycline peak))
- RRT 0.55 MW = 583 [5]: BRL (BRL means below reporting limit (meaning less than 0.05% of tigecycline peak))
- RRT 0.58 [5]: 0.07%
- RRT 0.64 9-Amino [5]: BRL (BRL means below reporting limit (meaning less than 0.05% of tigecycline peak))
- RRT 0.74 Epimer [5]: 0.22%
- RRT 0.76 [5]: 0.05%
- RRT 0.78 MW = 557 [5]: BRL (BRL means below reporting limit (meaning less than 0.05% of tigecycline peak))
- RRT 1.12 [5]: BRL (BRL means below reporting limit (meaning less than 0.05% of tigecycline peak))
- RRT 1.45 [5]: 0.07%
- RRT 1.58 [5]: BRL (BRL means below reporting limit (meaning less than 0.05% of tigecycline peak))
- RRT 1.64 Mino [5]: 0.13%
- RRT 1.67 MW = 556 [5]: BRL (BRL means below reporting limit (meaning less than 0.05% of tigecycline peak))
- RRT 1.85 MW = 597 [5]: 0.08%
- Strength [5]: 19.424 mg/mL
- Total [5]: 0.62%
- RRT 0.12 MW = 633 [6]: BRL (BRL means below reporting limit (meaning less than 0.05% of tigecycline peak))
- RRT 0.23 MW = 572 [6]: BRL (BRL means below reporting limit (meaning less than 0.05% of tigecycline peak))
- RRT 0.50 MW = 601 [6]: BRL (BRL means below reporting limit (meaning less than 0.05% of tigecycline peak))
- RRT 0.55 MW = 583 [6]: BRL (BRL means below reporting limit (meaning less than 0.05% of tigecycline peak))
- RRT 0.58 [6]: 0.07%
- RRT 0.64 9-Amino [6]: BRL (BRL means below reporting limit (meaning less than 0.05% of tigecycline peak))
- RRT 0.74 Epimer [6]: 0.23%
- RRT 0.76 [6]: BRL (BRL means below reporting limit (meaning less than 0.05% of tigecycline peak))
- RRT 0.78 MW = 557 [6]: BRL (BRL means below reporting limit (meaning less than 0.05% of tigecycline peak))
- RRT 1.12 [6]: BRL (BRL means below reporting limit (meaning less than 0.05% of tigecycline peak))
